Experimental data reported in patent US7141592B2, “Substituted oxadiazolidinediones” (Wyeth, priority 2003, dated 2006).

Assays:
[1] = target: T1, recombinant human plasminogen activator inhibitor-1 (PAI-1) (Homo sapiens, UniProt P05121); assay: Primary screen for the PAI-1 inhibition (chromogenic tPA activity, Spectrozyme-tPA); type: biochemical; settings: compound at 100 μM
T1 construct: purchased Molecular Innovations, Royal Oak, Mich
Experimental: Test compounds are dissolved in DMSO at a final concentration of 10 mM, then diluted 100× in physiologic buffer. The inhibitory assay is initiated by the addition of the substituted oxadiazolidinedione (1–100 μM final concentration, maximun DMSO concentration of 0.2%) in a pH 6.6 buffer containing 140 nM recombinant human plasminogen activator inhibitor-1 (PAI-1; Molecular Innovations, Royal Oak, Mich.). Following a 1 hour incubation at room temperature, 70 nM of recombinant human tissue plasminogen activator (tPA) is added, and the combination of the substituted oxadiazolidinedione, PAI-1 and tPA is incubated for an additional 30 minutes. Following the second incubation, Spectrozyme-tPA (American Diagnostica, Greenwich, Conn.), a chromogenic substrate for tPA, is added and absorbance read at 405 nm at 0 and 60 minutes. Relative PAI-1 inhibition is equal to the residual tPA activity in the presence of the test compound and PAI-1. Control treatments include the complete inhibition of tPA by PAI-1 at the molar ratio employed (2:1), and the absence of any effect of the substituted oxadiazolidinedione on tPA alone.

human PAI-1 = human PAI-1 (Homo sapiens, UniProt P05121); assay: Assay for determining IC50 of inhibition of PAI-1 (active PAI-1 bound to tPA-coated plate, 33B8 antibody detection); type: biochemical; settings: values carry suffix (K), not defined in the patent
Experimental: This assay is based upon the non-SDS dissociable interaction between tPA and active PAI-1. Assay plates are initially coated with human tPA (10 μg/ml). Substituted oxadiazolidinediones of the present invention are dissolved in DMSO at 10 mM, then diluted with physiologic buffer (pH 7.5) to a final concentration of 1–50 μM. Test compounds are incubated with human PAI-1 (50 ng/ml) for 15 minutes at room temperature. The tPA-coated plate is washed with a solution of 0.05% Tween 20 and 0.1% BSA, then the plate is blocked with a solution of 3% BSA. An aliquot of the substituted oxadiazolidinedione/PAI-1 solution is then added to the tPA-coated plate, incubated at room temperature for 1 hour, and washed. Active PAI-1 bound to the plate is assessed by adding an aliquot of a 1:1000 dilution of the 33B8 monoclonal antibody against human PAI-1, and incubating the plate at room temperature for 1 hour (Molecular Innovations, Royal Oak, Mich.). The plate is again washed, and a solution of goat anti-mouse IgG-alkaline phosphatase conjugate is added at a 1:50,000 dilution in goat serum. The plate is incubated 30 minutes at room temperature, washed, and a solution of alkaline phosphatase substrate is added. The plate is incubated 45 minutes at room temperature, and color development is determined at OD405nm. The quantitation of active PAI-1 bound to tPA at varying concentrations of the substituted oxadiazolidinedione is used to determine the IC50. Results are analyzed using a logarithmic best-fit equation. The assay sensitivity is 5 ng/ml of human PAI-1 as determined from a standard curve ranging from 0–100 ng/ml.

T1 sequence (P05121 24-402): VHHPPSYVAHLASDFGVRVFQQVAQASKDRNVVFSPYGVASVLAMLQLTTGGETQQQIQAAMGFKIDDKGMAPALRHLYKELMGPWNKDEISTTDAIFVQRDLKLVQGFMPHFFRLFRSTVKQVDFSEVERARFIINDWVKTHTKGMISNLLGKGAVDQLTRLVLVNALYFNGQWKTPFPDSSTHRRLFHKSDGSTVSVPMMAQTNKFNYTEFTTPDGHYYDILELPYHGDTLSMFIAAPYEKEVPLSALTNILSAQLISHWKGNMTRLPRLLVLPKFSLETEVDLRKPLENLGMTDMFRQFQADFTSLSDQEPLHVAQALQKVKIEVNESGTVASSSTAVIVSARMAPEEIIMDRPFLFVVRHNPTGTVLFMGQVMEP
Chain of human PAI-1 (P05121 24-402): as above

Row | inhibition at 100 µM [1] | IC50 (human PAI-1) | Structure (SMILES)
1 | 96% | 13.8 µM | CC(C)(C)c1ccc(COc2ccc3c(c2)c(Cn2oc(=O)[nH]c2=O)cn3Cc2ccccc2)cc1 [Compound 1, 2-({1-benzyl-5-[(4-tert-butylbenzyl)oxy]-1H-indol-3-yl}methyl)-1,2,4-oxadiazolidine-3,5-dione]
2 | 92% | 26.5 µM | O=c1[nH]c(=O)n(Cc2cn(Cc3ccccc3)c3ccc(OCc4cccc(Cl)c4)cc23)o1 [Compound 9, 2-({1-benzyl-5-[(3-chlorobenzyl)oxy]-1H-indol-3-yl}methyl)-1,2,4-oxadiazolidine-3,5-dione]
3 | 92% | 9.36 µM | O=c1[nH]c(=O)n(Cc2cn(Cc3ccccc3)c3ccc(OCc4cccc(C(F)(F)F)c4)cc23)o1 [Compound 10, 2-[(1-benzyl-5-{[3-(trifluoromethyl)benzyl]oxy}-1H-indol-3-yl)methyl]-1,2,4-oxadiazolidine-3,5-dione]
4 | 92% |  | O=c1[nH]c(=O)n(Cc2cc(OCc3cccc(Br)c3)cc(OCc3cccc(Br)c3)c2)o1 [Compound 74, 2-{3,5-bis[(3-bromobenzyl)oxy]benzyl}-1,2,4-oxadiazolidine-3,5-dione]
5 | 91% |  | O=c1[nH]c(=O)n(Cc2cc(OCc3ccccc3Br)cc(OCc3ccccc3Br)c2)o1 [Compound 75, 2-{3,5-bis[(2-bromobenzyl)oxy]benzyl}-1,2,4-oxadiazolidine-3,5-dione]
6 | 95% |  | COc1cc(Cn2oc(=O)[nH]c2=O)cc(OCc2ccc(C(F)(F)F)cc2)c1OCc1ccc(C(F)(F)F)cc1 [Compound 76, 2-(3-methoxy-4,5-bis{[4-(trifluoromethyl)benzyl]oxy}benzyl)-1,2,4-oxadiazolidine-3,5-dione]
7 | 88% |  | COc1cc(Cn2oc(=O)[nH]c2=O)cc(OCc2cccc(C)c2)c1OCc1cccc(C)c1 [Compound 77, 2-{3-methoxy-4,5-bis[(3-methylbenzyl)oxy]benzyl}-1,2,4-oxadiazolidine-3,5-dione]
8 | 91% |  | COc1cc(Cn2oc(=O)[nH]c2=O)cc(OCc2cccc(Cl)c2)c1OCc1cccc(Cl)c1 [Compound 78, 2-{3,4-bis[(3-chlorobenzyl)oxy]-5-methoxybenzyl}-1,2,4-oxadiazolidine-3,5-dione]
9 | 87% |  | COc1cc(Cn2oc(=O)[nH]c2=O)cc(OCc2cccc(Br)c2)c1OCc1cccc(Br)c1 [Compound 79, 2-{3,4-bis[(3-bromobenzyl)oxy]-5-methoxybenzyl}-1,2,4-oxadiazolidine-3,5-dione]
10 | 89% |  | COc1cc(Cn2oc(=O)[nH]c2=O)cc(OCc2ccccc2Br)c1OCc1ccccc1Br [Compound 80, 2-{3,4-bis[(2-bromobenzyl)oxy]-5-methoxybenzyl}-1,2,4-oxadiazolidine-3,5-dione]
11 | 92% |  | O=c1[nH]c(=O)n(Cc2cccc(OCc3ccc(C(F)(F)F)cc3)c2OCc2ccc(C(F)(F)F)cc2)o1 [Compound 81, 2-(2,3-bis{[4-(trifluoromethyl)benzyl]oxy}benzyl)-1,2,4-oxadiazolidine-3,5-dione]
12 | 80% |  | Cc1cccc(COc2cccc(Cn3oc(=O)[nH]c3=O)c2OCc2cccc(C)c2)c1 [Compound 82, 2-{2,3-bis[(3-methylbenzyl)oxy]benzyl}-1,2,4-oxadiazolidine-3,5-dione]
13 | 95% |  | O=c1[nH]c(=O)n(Cc2cccc(OCc3cccc(Cl)c3)c2OCc2cccc(Cl)c2)o1 [Compound 83, 2-{2,3-bis[(3-chlorobenzyl)oxy]benzyl}-1,2,4-oxadiazolidine-3,5-dione]
14 | 95% |  | O=c1[nH]c(=O)n(Cc2cccc(OCc3cccc(Br)c3)c2OCc2cccc(Br)c2)o1 [Compound 84, 2-{2,3-bis[(3-bromobenzyl)oxy]benzyl}-1,2,4-oxadiazolidine-3,5-dione]
15 | 93% |  | O=c1[nH]c(=O)n(Cc2cccc(OCc3ccccc3Br)c2OCc2ccccc2Br)o1 [Compound 85, 2-{2,3-bis[(2-bromobenzyl)oxy]benzyl}-1,2,4-oxadiazolidine-3,5-dione]
16 | 94% |  | O=c1[nH]c(=O)n(Cc2ccc(OCc3ccc(C(F)(F)F)cc3)c(OCc3ccc(C(F)(F)F)cc3)c2)o1 [Compound 86, 2-(3,4-bis{[4-(trifluoromethyl)benzyl]oxy}benzyl)-1,2,4-oxadiazolidine-3,5-dione]
17 | 92% |  | Cc1cccc(COc2ccc(Cn3oc(=O)[nH]c3=O)cc2OCc2cccc(C)c2)c1 [Compound 87, 2-{3,4-bis[(3-methylbenzyl)oxy]benzyl}-1,2,4-oxadiazolidine-3,5-dione]
18 | 91% |  | O=c1[nH]c(=O)n(Cc2ccc(OCc3cccc(Cl)c3)c(OCc3cccc(Cl)c3)c2)o1 [Compound 88, 2-{3,4-bis[(3-chlorobenzyl)oxy]benzyl}-1,2,4-oxadiazolidine-3,5-dione]
19 | 88% |  | O=c1[nH]c(=O)n(Cc2ccc(OCc3cccc(Br)c3)c(OCc3cccc(Br)c3)c2)o1 [Compound 89, 2-{3,4-bis[(3-bromobenzyl)oxy]benzyl}-1,2,4-oxadiazolidine-3,5-dione]
20 | 94% |  | O=c1[nH]c(=O)n(Cc2ccc(OCc3ccccc3Br)c(OCc3ccccc3Br)c2)o1 [Compound 90, 2-{3,4-bis[(2-bromobenzyl)oxy]benzyl}-1,2,4-oxadiazolidine-3,5-dione]
